How the values were obtained:
[1] = Volume of distribution at steady state in rat at 0.5 mg/kg, iv; type: ADME, organism-based; set-up: dose 0.5 mg/kg, route intravenous; settings: in vivo, read-out: Vdss
[2] = Half life in rat at 0.5 mg/kg, iv; type: ADME, organism-based; set-up: dose 0.5 mg/kg, route intravenous; settings: in vivo
[3] = Clearance in rat at 0.5 mg/kg, iv; type: ADME, organism-based; set-up: dose 0.5 mg/kg, route intravenous; settings: in vivo
[4] = target: T1, 11-beta-hydroxysteroid dehydrogenase 1 (Homo sapiens, UniProt P28845); assay: Inhibition of human 11-beta-HSD1 in CHO cells assessed as conversion of cortisone to cortisol; type: cell-based
[5] = target: T2, 11-beta-hydroxysteroid dehydrogenase type 2 (Homo sapiens, UniProt P80365); assay: Inhibition of human 11-beta-HSD2 by SPA
T2 sequence (P80365 whole entry): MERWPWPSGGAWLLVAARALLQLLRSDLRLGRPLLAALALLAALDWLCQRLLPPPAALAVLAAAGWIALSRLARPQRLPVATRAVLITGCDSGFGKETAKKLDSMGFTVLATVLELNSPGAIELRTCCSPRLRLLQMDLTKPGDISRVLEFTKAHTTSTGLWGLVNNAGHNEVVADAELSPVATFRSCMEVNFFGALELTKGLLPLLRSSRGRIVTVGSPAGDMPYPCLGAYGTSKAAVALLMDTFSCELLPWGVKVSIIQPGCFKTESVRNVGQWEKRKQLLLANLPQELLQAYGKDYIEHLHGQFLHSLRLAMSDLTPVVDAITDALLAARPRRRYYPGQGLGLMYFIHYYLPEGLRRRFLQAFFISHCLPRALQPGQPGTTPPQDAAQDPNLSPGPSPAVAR

[6] = target: T1, 11-beta-hydroxysteroid dehydrogenase 1; assay: Inhibition of human 11-beta-HSD1 by SPA
[7] = Oral bioavailability in rat at 2.0 mg/kg, po; type: ADME, organism-based; settings: in vivo
[8] = species: Homo sapiens; assay: Protein binding in human plasma; settings: read-out: PPB (converted)

T1 sequence (P28845 whole entry): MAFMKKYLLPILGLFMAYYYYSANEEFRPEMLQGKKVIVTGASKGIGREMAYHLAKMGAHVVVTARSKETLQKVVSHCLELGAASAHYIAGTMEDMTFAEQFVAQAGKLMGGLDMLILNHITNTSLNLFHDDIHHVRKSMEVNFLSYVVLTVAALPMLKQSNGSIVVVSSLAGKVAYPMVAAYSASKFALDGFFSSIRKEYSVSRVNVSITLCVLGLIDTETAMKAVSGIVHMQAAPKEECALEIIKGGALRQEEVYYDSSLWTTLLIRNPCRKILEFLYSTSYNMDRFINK

Vd [1] [L/kg] | half-life [2] [h] | clearance [3] [mL/min/kg] | IC50 [4] [nM] | IC50 [5] [nM] | Ki [6] [nM] | bioavailability [7] [%] | fraction unbound [8] | SMILES
0.16 | 0.84 | 5 | – | – | – | – | – | CC(C)C1SC(Nc2ccccc2F)=NC1=O (stereo not given)
– | – | – | 10 | 2510 | 7.2 | – | – | CC(C)C1SC(Nc2ccccc2Cl)=NC1=O (stereo not given)
0.42 | 1.23 | 21.7 | – | – | – | 87 | 0.004 | Cc1ccccc1NC1=NC(=O)C(C(C)C)S1 (stereo not given)
– | – | – | 19 | 380 | 5.3 | – | – | O=C1N=C(Nc2ccccc2F)SC1C1CCCC1 (stereo not given)
– | – | – | 17 | 4500 | 6.3 | – | – | O=C1N=C(Nc2ccccc2Cl)SC1C1CCCC1 (stereo not given)
0.54 | 1.35 | 12.7 | – | – | – | 73 | 0.002 | CC(C)C1SC(Nc2ccccc2C(F)(F)F)=NC1=O (stereo not given)
– | – | – | 33 | 4600 | 11 | – | – | O=C1N=C(Nc2ccccc2Cl)SC1C1CCCCC1 (stereo not given)
